# Results reported in PubChem BioAssay (NCI).
#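 Cells were grown in 96-well plates and exposed to each compound for 48 hours at five concentrations; endpoints were interpolated linearly between bracketing concentrations, or set to the highest concentration if not reached. The concentration for full growth arrest is given as TGI.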
# How the values were obtained:
# Experiment in all cases: NCI tumour cell line growth inhibition, 48 h
# T-47D breast = system: T-47D breast
# SF-295 CNS = system: SF-295 CNS
# CCRF-CEM leukemia = system: CCRF-CEM leukemia
# UO-31 renal = system: UO-31 renal
# SF-268 CNS = system: SF-268 CNS
# IGROV1 ovarian = system: IGROV1 ovarian
# HOP-62 NSCLC = system: HOP-62 NSCLC
# OVCAR-3 ovarian = system: OVCAR-3 ovarian
# OVCAR-5 ovarian = system: OVCAR-5 ovarian
# MOLT-4 leukemia = system: MOLT-4 leukemia
# COLO 205 colon = system: COLO 205 colon
# UACC-257 melanoma = system: UACC-257 melanoma
# NCI-H23 lung = system: NCI-H23 lung
# U251 CNS = system: U251 CNS
# HT29 colon = system: HT29 colon
# NCI-H460 lung = system: NCI-H460 lung
# RXF 393 renal = system: RXF 393 renal
# HCC-2998 colon = system: HCC-2998 colon
# UACC-62 melanoma = system: UACC-62 melanoma
# MDA-MB-435 = system: MDA-MB-435
SMILES,TGI (T-47D breast) [µM],TGI (SF-295 CNS) [µM],TGI (CCRF-CEM leukemia) [µM],TGI (UO-31 renal) [µM],TGI (SF-268 CNS) [µM],TGI (IGROV1 ovarian) [µM],TGI (HOP-62 NSCLC) [µM],TGI (OVCAR-3 ovarian) [µM],TGI (OVCAR-5 ovarian) [µM],TGI (MOLT-4 leukemia) [µM],TGI (COLO 205 colon) [µM],TGI (UACC-257 melanoma) [µM],TGI (NCI-H23 lung) [µM],TGI (U251 CNS) [µM],TGI (HT29 colon) [µM],TGI (NCI-H460 lung) [µM],TGI (RXF 393 renal) [µM],TGI (HCC-2998 colon) [µM],TGI (UACC-62 melanoma) [µM],TGI (MDA-MB-435) [µM]
COc1cc(C(O)(CC#N)c2cc3c(cc2Br)OCO3)cc(OC)c1OC (stereo not given),> 100,> 100,> 100,> 100,> 100,> 100,35.9,> 100,> 100,> 100,> 100,> 100,> 100,> 100,54.9,50.8,> 100,66.1,> 100,13.7
CCCC(=O)Nc1cc(/C=C/C(=O)N2CC(CCl)c3c2cc(O)c2[nH]cc(C)c32)n(C)c1 (stereo not given),0.00884,2.98e-05,0.000155,–,< 2.5e-05,> 0.25,< 2.5e-05,–,0.0286,0.0121,–,–,< 2.5e-05,0.0449,0.0285,–,< 2.5e-05,–,< 2.5e-05,< 2.5e-05
Cc1ccc(S(=O)(=O)N2CCCSCC2)cc1,> 100,> 100,> 100,> 100,> 100,–,–,–,–,> 100,> 100,> 100,> 100,> 100,> 100,> 100,> 100,> 100,–,> 100
CC(=O)C1CC[C@@H]2[C@H](CC[C@]3(C)[C@@H](O)CC[C@@H]23)[C@H]1C(=O)O (stereo not given in full),–,> 100,> 100,> 100,> 100,> 100,> 100,> 100,> 100,> 100,> 100,> 100,> 100,> 100,> 100,> 100,> 100,> 100,> 100,> 100
O=C1c2ccccc2C(=O)N1CC(O)COc1cccc2ccccc12 (stereo not given),–,> 100,> 100,> 100,> 100,> 100,> 100,> 100,> 100,> 100,> 100,> 100,–,> 100,> 100,> 100,–,> 100,> 100,> 100
